Measured values from patent publication US20230099344A1, “COMPOUNDS AND METHODS FOR THE TARGETED DEGRADATION OF IRAK-4” (Arvinas Operations, Inc., priority 2021, published 2023).
pIC50: −log10 of the molar value.

Tests used:
Format in all cases: cell-based
IRAK-4 = target: T1, IRAK-4 (Homo sapiens, UniProt Q9NWZ3); assay: IRAK-4 ELISA, PBMC degradation; design: endogenous in cells; host or cells: PBMC; settings: treated overnight
T1 sequence (Q9NWZ3 1-460): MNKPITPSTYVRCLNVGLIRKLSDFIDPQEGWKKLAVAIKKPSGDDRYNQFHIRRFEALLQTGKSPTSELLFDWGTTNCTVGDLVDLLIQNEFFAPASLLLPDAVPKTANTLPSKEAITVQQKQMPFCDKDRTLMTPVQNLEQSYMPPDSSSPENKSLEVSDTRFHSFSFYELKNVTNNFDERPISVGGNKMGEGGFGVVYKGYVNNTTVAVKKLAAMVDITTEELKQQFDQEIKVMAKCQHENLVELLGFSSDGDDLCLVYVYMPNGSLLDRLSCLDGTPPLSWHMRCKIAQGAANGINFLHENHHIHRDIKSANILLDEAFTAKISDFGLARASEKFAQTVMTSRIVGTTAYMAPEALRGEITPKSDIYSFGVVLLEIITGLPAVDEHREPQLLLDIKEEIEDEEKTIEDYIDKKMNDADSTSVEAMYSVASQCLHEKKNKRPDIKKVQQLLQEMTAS
How it was run: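 OCI-Ly10 cells (seeded at 1×10^6/ml) or human PBMC (seeded at 2×10^6/ml) were treated with compound on the day of seeding and incubated overnight. Lysates were then assayed for remaining IRAK-4 protein by sandwich ELISA with a matched antibody pair.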

IL6 [1] = assay: R848 stimulated IL6 inhibition assay in PBMC; settings: PBMC, human PBMCs, R848 stimulation, compound overnight, IL6 by MSD after 24 hrs; for Dmax: Homo sapiens, 24 h, read-out: R848 stim IL6 inhibition Dmax; for pIC50: read-out: R848 stim IL6 inhibition IC50
Experimental: (§1) IL-1β, LPS, or R848 Stimulated IL6 Inhibition and IL-1β Stimulated IL8 Inhibition Assay
(§2) Human PBMC cells were seeded at 2.0×10^6 cells/mL, treated with compound overnight, and dosed with the EC50 concentration of each stimulant (either IL-1B. LPS, or R848) was determined for each donor. After 24 hrs, media was collected and analyzed by MSD for IL6 and/or IL8 levels.

IL6 [2] = assay: LPS stimulated IL6 inhibition assay in PBMC; settings: Homo sapiens, PBMC, 24 h, human PBMCs, LPS stimulation, compound overnight, IL6 by MSD after 24 hrs; for Dmax: read-out: LPS Stim IL6 inhibition Dmax; for pIC50: read-out: LPS stim IL6 inhibition IC50
Experimental: as §1, §2

SMILES | DC50 (IRAK-4) | Dmax (IRAK-4) | PBMC DC90 (IRAK-4) | Dmax (IL6 [1]) | pIC50 (IL6 [1]) | Dmax (IL6 [2]) | pIC50 (IL6 [2])
O=C1CCC(N2C(=O)c3ccc(N4CCC(CN5CCC(n6cc7cc(NC(=O)c8cnn9cccnc89)c(N8CCN(CC(F)F)CC8)cc7n6)CC5)CC4)cc3C2=O)C(=O)N1 (stereo not drawn) [Example 159] | 1 to 5 nM | ≥ 90% | A (A represents a DC90 value <10.0 nM) | ≥ 90% | 7.30 to 8.00 | 70 to 80% | 7.30 to 8.00
O=C1CCC(N2Cc3cc(N4CCC(CN5CCC(N6Cc7cc(NC(=O)c8cnn9cccnc89)c(N8CCN(C9CC(F)(F)C9)CC8)cc7C6=O)CC5)CC4)ccc3C2=O)C(=O)N1 (stereo not drawn) [Example 54] | 1 to 5 nM | ≥ 90% | A (A represents a DC90 value <10.0 nM) | 80 to 90% | 7.30 to 8.00 | < 70% | > 8.00
CC(C)Oc1cc2c(cc1NC(=O)c1cnn3cccnc13)CN(C1CCN(C(C)(C)C3CN(c4ccc(C(=O)NC5CCC(=O)NC5=O)c(F)c4)C3)CC1)C2=O (stereo not drawn) [Example 312] | 1 to 5 nM | ≥ 90% | A (A represents a DC90 value <10.0 nM) | ≥ 90% | > 8.00 | ≥ 90% | 7.30 to 8.00
O=C1CCC(N2C(=O)c3ccc(N4CCC5(CC4)CN([C@H]4CC[C@H](n6cc7cc(NC(=O)c8cnn9cccnc89)c(OCC8CC8)cc7n6)CC4)C5)cc3C2=O)C(=O)N1 (stereo partly drawn) [Example 353] | 1 to 5 nM | 80 to 90% | B (B represents a DC90 value ≥10.0 nM and <25.0 nM) | ≥ 90% | 7.30 to 8.00 | 70 to 80% | 7.30 to 8.00
O=C1CCC(N2C(=O)c3ccc(N4CC[C@@H](O[C@H]5CC[C@@H](n6cc7cc(NC(=O)c8cnn9cccnc89)c(OCC8CC8)cc7n6)CC5)C4)cc3C2=O)C(=O)N1 (stereo partly drawn) [Example 425] | ≥ 10 nM | – | D (D represents a DC90 value ≥50 nM) | 70 to 80% | 7.00 to 7.30 | 70 to 80% | 7.00 to 7.30
O=C1CCC(N2Cc3cc(N4CCC(CN5CCC(n6cc7cc(NC(=O)c8cnn9cccnc89)c(OCC(F)F)cc7n6)CC5)CC4)ccc3C2=O)C(=O)N1 (stereo not drawn) [Example 149] | < 1 nM | 80 to 90% | A (A represents a DC90 value <10.0 nM) | ≥ 90% | > 8.00 | 70 to 80% | 7.30 to 8.00
O=C1CCC(N2C(=O)c3ccc(N4CCC(CN5CCC(N6Cc7cc(NC(=O)c8cnn9cccnc89)c(OCC(F)F)cc7C6=O)CC5)CC4)cc3C2=O)C(=O)N1 (stereo not drawn) [Example 42] | 1 to 5 nM | ≥ 90% | B (B represents a DC90 value ≥10.0 nM and <25.0 nM) | < 70% | > 8.00 | < 70% | 7.00 to 7.30
O=C1CCC(N2C(=O)c3ccc(O[C@H]4C[C@H](N[C@H]5CC[C@H](n6cc7cc(NC(=O)c8cnn9cccnc89)c(OCC8CC8)cc7n6)CC5)C4)cc3C2=O)C(=O)N1 (stereo partly drawn) [Example 374] | < 1 nM | ≥ 90% | B (B represents a DC90 value ≥10.0 nM and <25.0 nM) | ≥ 90% | 7.30 to 8.00 | 70 to 80% | 7.30 to 8.00
O=C1CCC(NC(=O)c2ccc(O[C@H]3C[C@H](N[C@H]4CC[C@H](n5cc6cc(NC(=O)c7cnn8cccnc78)c(OCC7CC7)cc6n5)CC4)C3)cc2F)C(=O)N1 (stereo partly drawn) [Example 376] | 1 to 5 nM | ≥ 90% | A (A represents a DC90 value <10.0 nM) | ≥ 90% | 7.30 to 8.00 | 70 to 80% | 7.30 to 8.00
O=C1CCC(N2C(=O)c3ccc(N4CCC5(CC4)CC(CN4CCC(n6cc7cc(NC(=O)c8cnn9cccnc89)c(OCC8CC8)cc7n6)CC4)C5)cc3C2=O)C(=O)N1 (stereo not drawn) [Example 261] | 1 to 5 nM | ≥ 90% | A (A represents a DC90 value <10.0 nM) | 80 to 90% | 7.00 to 7.30 | 80 to 90% | 7.30 to 8.00
